The source of these data is US20220213086A1, “AZOLE COMPOUNDS AS IRAK INHIBITORS, PREPARATION METHODS AND MEDICINAL USES THEREOF” (Eternity Bioscience Inc., priority 2020, published 2022).

Where two headings read alike, the source gives them in different places.

Assay [1] concerns the target T1, full length human IRAK4 protein (Homo sapiens, UniProt Q9NWZ3).
T1 construct: Purified full length human IRAK4 protein; purchased Signal Chem 1112-10G-125
T1 sequence (Q9NWZ3 1-460): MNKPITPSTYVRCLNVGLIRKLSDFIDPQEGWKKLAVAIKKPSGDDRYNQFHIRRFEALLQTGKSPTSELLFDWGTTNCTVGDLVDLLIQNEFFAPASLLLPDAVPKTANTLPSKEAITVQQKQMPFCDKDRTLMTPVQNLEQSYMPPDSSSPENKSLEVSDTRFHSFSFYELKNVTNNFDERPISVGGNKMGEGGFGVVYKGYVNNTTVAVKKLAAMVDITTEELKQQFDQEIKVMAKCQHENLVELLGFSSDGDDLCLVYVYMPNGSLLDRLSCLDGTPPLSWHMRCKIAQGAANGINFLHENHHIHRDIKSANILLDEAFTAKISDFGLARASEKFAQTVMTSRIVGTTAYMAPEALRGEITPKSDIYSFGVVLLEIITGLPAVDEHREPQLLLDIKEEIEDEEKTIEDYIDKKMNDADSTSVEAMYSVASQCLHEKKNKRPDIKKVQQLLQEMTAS
Put plainly: IRAK4 biochemical assay (Promega ADP-Glo IRAK4 Kinase Enzyme System). As to conditions: 3 nM enzyme, 2 μM MBP, 250 μM ATP, 60 min at room temperature. As for the experimental part:
For the routine compound screening, an IRAK4 kinase assay was performed as follows using Promega ADP-Glo IRAK4 Kinase Enzyme System (Promega, Cat #2198-AD). Purified full length human IRAK4 protein (Signal Chem; Cat #1112-10G-125) was diluted to a concentration 6 nM in assay buffer (25 mM MOPS, pH 7.2, 12.5 mM β-glycerol-phosphate, 25 mM MgCl2, 5 mM EGTA, 2 mM EDTA, 0.0025% Brij-35, add 0.25 mM DTT to Kinase Assay Buffer prior to use) containing IRAK4 inhibitor at 2× the final concentration in 0.4% DMSO. The reaction was performed in PerkinElmer Proxiplate-384 plus white plate (Fisher Scientific, Cat #50-905-2761) and started by the addition of an equal volume of the assay buffer containing 4 μM native swine myelin basic protein (MBP) and 500 μM ATP to achieve a final concentration of 3 nM enzyme, 2 μM MBP, 250 μM ATP, 1×compound, and 0.2% DMSO. The kinase reaction was allowed to run for 60 min at room temperature (25-27° C.), then 5 μL of ADP-Glo was added to the reaction in each well followed by 40 minutes-incubation at RT. To detect converted ATP, 10 μL Detection Buffer was added into each well and Incubate at RT in dark for 30 minutes. Finally, luminescence was read using Tecan with 1000 ms of integration time. The luminescent signal positively correlates with ADP amount and kinase activity. Data was analyzed by GraphPad Prism and IC50 was calculated using function log(inhibitor) vs. response—Variable slope (four parameters). Percentage of inhibition was calculated as below:
% inhibition=(1−(Reading(Sample)−Reading(Negative Control))/(Reading(Positive Control)−Reading(Negative Control)))×100%
The 0% inhibition value comes from the Reading of Positive Control wells having 0 nM compound. The 100% inhibition value comes from the Reading of Negative Control wells having no IRAK4 kinase.

The test system of assay [2] is IRAK4 (TNFα in human peripheral blood mononuclear cells). Put plainly: IRAK4 human PBMC TNFα cell based assay (AlphaLISA). As to conditions: TNFα readout. The method, then: In this assay, serially diluted compounds were incubated with 1×10^4 human peripheral blood mononuclear cells (PBMCs) from STEMCELL (Cat #70025.1) per well of 384-well plate (Fisher Scientific; 50-905-2761) and cultured with TexMACS medium (Miltenyi, Cat #130-097-196), stimulated by R848 (0.5 μM) or IL-1β (10 ng/ml). Plates were covered with lids and incubated for 4 h (R848, Fisher Scientific, Cat #NC9801605) or 24 h (IL-1β, Fisher Scientific, Cat #ENRIL1BI) at 37° C. in a humidified tissue-culture incubator. After a brief centrifugation at 1000 rpm for 5 minutes, 5 μl of culture medium was used for the measurement of the TNFα amount using TNFα (human) AlphaLISA Detection Kit (PerkinElmer, Cat #AL208C) according to manufacturer's protocol. A biotinylated anti-TNFα antibody binds to the Streptavidin-coated Donor beads while another anti-TNFα antibody is conjugated to AlphaLISA Acceptor beads. In the presence of the TNFα, the beads come into close proximity. The excitation of the Donor beads causes the release of singlet oxygen molecules that triggers a cascade of energy transfer in the Acceptor beads, resulting in a sharp peak of light emission at 615 nm. AlphaLISA assay plates were read using PHERAstar. Percentage of inhibition was calculated as below:
% inhibition=(1−(Reading(Sample)−Reading(Negative Control))/(Reading(Positive Control)−Reading(Negative Control)))×100% […]

Consider `CC[C@@H]1[C@H](F)C(=O)N[C@@H]1COc1nsc2cc(C(N)=O)c(OC)cc12` [Example 2], for which the IC50 in assay [1] was found to be 14 nM; in assay [2] (human PBMCs stimulated by IL-1β (10 ng/ml), 24 h, read-out: IRAK4 PBMC AlphaLISA IL-1β (IC50)), 26 nM; in assay [2] (human PBMCs stimulated by R848 (0.5 μM), 4 h, read-out: IRAK4 PBMC AlphaLISA R848 (IC50)), 21 nM. For the same molecule, the “IRAK4 Biochemical Assay Max Inhibition (%)” value in assay [1] was determined as 93.0%.
For the molecule `COc1cc2c(OC[C@@H]3CCC(=O)N3)nsc2cc1C(N)=O` [Example 1, (S)-5-methoxy-3-((5-oxopyrrolidin-2-yl)methoxy)benzo[d]isothiazole-6-carboxamide], in assay [1], the IC50 was 240 nM and the “IRAK4 Biochemical Assay Max Inhibition (%)” value stood at 98.0%.
